According to patent publication US7144991B2, “Streptavidin expressed gene fusions and methods of use thereof” (Aletheon Pharmaceuticals, Inc., priority 1999, dated 2006):
Values joined by “and” are separate entries in the source; they are usually repeats but may differ in a detail not shown here. Identical values can stand only once.

Experiment: Biotin binding capacity
Conditions: 9-fold molar excess of [3H]biotin
Description: (§1) Biotin Binding and Dissociation. Biotin binding capacity was determined by incubation of a known quantity of fusion protein with a 9-fold molar excess of [3H]biotin (NEN Research Products, Boston, Mass.). After removal of uncomplexed biotin using streptavidin-immobilized beads (Pierce Chemical; Rockford, Ill.), the amount of [^3H]biotin associated with the fusion protein was determined.
as §1, with “Capacity.” for “and Dissociation.”, “[^3H]biotin” for “[3H]biotin”

Biotin binding capacity (average biotins bound): 4 biotins and 4.0 biotins
Substance: recombinant streptavidin: recombinant streptavidin (Roche Biochemical), control in biotin binding and dissociation
